Our source for the Ki and IC50 values is patent EP4631938A1, “NITROGEN-CONTAINING HETEROCYCLE WITH SEROTONIN RECEPTOR-BINDING ACTIVITY AND CARBOCYCLIC DERIVATIVE” (Shionogi & Co., Ltd, priority 2022, dated 2024).

pIC50, pKi: −log10 of the molar value. Where only a bound is given, the exact number is not on record here.

In general, pKi refers to the negative decadic logarithm of the Ki, by convention in mol/L. Usually pIC50 stands for the IC50 on a negative log10 scale, so that one unit is a factor of ten. Lower therefore signals a high IC50.

Test [1] has as its target T1, human recombinant 5-HT2A receptor (Homo sapiens, UniProt P28223).
T1 construct: expressed in transfected cells; host or cells: Jump-In HEK cells (membrane preparation)
Briefly: Test Example 1: 5-HT2A receptor binding inhibition test ([3H]-Ketanserin; non-specific ligand Serotonin HCl). The method, then:
The Kd value is calculated when the lot of the cell membrane is changed. 1 mmol/L non-specific binding calculating compound dissolved in DMSO or DMSO is previously dispensed to the microplate by 0.5 µL, and the cell membrane is diluted with an Assay buffer. The radioactive ligand solution is diluted step by step, and counts are checked with a liquid scintillator. The Assay buffer containing diluted cell membranes is dispensed by 50 µL/well into the microplate. The radioactive ligand solution is then dispensed by 50 µL/well into the microplate and the plate is sealed. The microplate is allowed to stand for 1.5 hours at room temperature (25°C). During this time, 50 mmol/L Tris-HCl (pH 7.4) is dispensed by 50 µL/well on the GF/B UniFilter plate and allowed to stand at 4°C for 1 hour or longer. Thereafter, filtration is performed with a Cell Harvester (PerkinElmer). The radioactive ligand solution is dispensed by 10 µL/well into empty wells of the GF/B UniFilter plate. After drying the GF/B UniFilter plate at room temperature, MicroScinti20 is dispensed by 50 µL/well into the GF/B UniFilter plate, and the plate is sealed. GF/B UniFilter plate is allowed to stand at room temperature overnight. The radioactivity of [^3H]-Ketanserin bound to the 5-HT2A receptor is measured using Microbeta2 (PerkinElmer) at a measurement time of 1 min/well. The Saturation curve is drawn from the measured value, and the Kd value is calculated from the slope of the Scatchard Plot.
A compound solution dissolved in DMSO is dispensed to a microplate by 0.5 µL, and a cell membrane and a hot ligand are each diluted with an Assay buffer. The Assay buffer containing diluted cell membrane is then dispensed by 50 µL/well into the microplate. The radioactive ligand solution is then dispensed by 50 µL/well into the microplate and the plate is sealed. Thereafter, the microplate is allowed to stand at room temperature (25°C) for 1.5 hours. During this time, 50 mmol/L Tris-HCl (pH 7.4) is dispensed by 50 µL/well into the GF/B UniFilter plate and allowed to stand at 4°C for 1 hour or longer. Thereafter, filtration is performed with a Cell Harvester (PerkinElmer). After drying the GF/B UniFilter plate at room temperature, MicroScinti20 is dispensed by 50 µL/well into the GF/B UniFilter plate, and the plate is sealed. GF/B UniFilter plate is allowed to stand at room temperature overnight. The radioactivity of [^3H]-Ketanserin bound to the 5-HT2A receptor is measured using Microbeta2 (PerkinElmer) at a measurement time of 1 min/well. Non-specific binding is calculated from the radioactivity of [^3H]-Ketanserin in the presence of 500 µmol/L Serotonin HCl of unlabeled ligand, and total binding is calculated from the radioactivity of [^3H]-Ketanserin in the absence of the compound of the present invention (Vehicle). Finally, the Ki value is calculated from the dose-response curve.
(The binding activity of the compound according to the present invention is calculated from the following binding inhibition rate (%).) Inhibition rate (%) = [1−(c−a)/(b−a)] × 100 [formula] • a; average cpm of non-specific binding • b; average cpm of total binding • c; cpm in the presence of the test compound
The compounds of the present invention were tested essentially as described above.

Test [2] has as its target T2, human recombinant 5-HT2C receptor (Homo sapiens, UniProt P28335).
T2 construct: expressed in transfected cells; host or cells: Jump-In HEK cells (membrane preparation)
T2 sequence (P28335 33-458): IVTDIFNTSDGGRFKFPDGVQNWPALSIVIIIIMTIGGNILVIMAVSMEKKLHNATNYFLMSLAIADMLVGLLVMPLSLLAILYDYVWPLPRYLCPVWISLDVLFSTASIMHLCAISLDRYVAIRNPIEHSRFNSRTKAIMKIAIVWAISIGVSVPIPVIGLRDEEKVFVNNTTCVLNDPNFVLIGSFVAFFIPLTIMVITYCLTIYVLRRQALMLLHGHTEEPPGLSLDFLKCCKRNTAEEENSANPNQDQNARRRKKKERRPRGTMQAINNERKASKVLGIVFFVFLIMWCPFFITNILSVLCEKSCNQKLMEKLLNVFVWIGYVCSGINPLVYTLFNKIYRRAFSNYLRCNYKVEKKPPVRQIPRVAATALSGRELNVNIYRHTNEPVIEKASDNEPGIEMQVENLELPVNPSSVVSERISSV
The experiment in a line: Test Example 2: 5-HT2C receptor binding inhibition test ([3H]-Mesulergine; non-specific ligand Serotonin HCl). The method, boiled down:
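Ki values come from dose-response curves of [3H]-mesulergine displacement from human 5-HT2C membranes after 2 h at 37°C, scored by scintillation counting of filter-bound radioactivity. Serotonin HCl (500 µmol/L) set non-specific binding; Kd per membrane lot was taken from Scatchard plots.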

The target of test [3] is T1, human recombinant 5-HT2A receptor. The experiment in a line: Test Example 1-2: 5-HT2A receptor binding inhibition test ([3H]-Ketanserin; non-specific ligand Ketanserin). The method in brief:
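Ki values were derived from dose-response inhibition of [3H]-ketanserin binding; nonspecific binding was set with 500 µmol/L ketanserin, and Kd was set for each membrane lot from Scatchard saturation plots. Incubation lasted 1.5 h at room temperature (25 °C). Bound radioligand was harvested on Tris-HCl (pH 7.4)-presoaked filters and counted.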

Test [4] deals with T2, human recombinant 5-HT2C receptor. Briefly: Test Example 2-2: 5-HT2C receptor binding inhibition test ([3H]-Mesulergine; non-specific ligand Ketanserin). To be noted: non-specific binding with 500 µmol/L Ketanserin, 37°C, 2 hours. The method in brief:
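Membranes expressing the receptor were incubated with compound and [3H]-Mesulergine for 2 h at 37 °C, then filtered and counted by scintillation. Non-specific binding was defined with 500 µmol/L Ketanserin. Percent inhibition versus vehicle gave dose-response curves, from which Ki was derived using a Kd from Scatchard saturation analysis.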

For test [5], the target named is T3, human ether-a-go-go related gene (hERG) channel (Homo sapiens, UniProt Q12809).
T3 construct: expressed in transfected cells; host or cells: CHO cells
The experiment in a line: Test Example 3: hERG test (FluxORII thallium flux, FLIPR, 8000 cells/well). The following applies: CHO cells expressing hERG channel, compound reacted for 10 minutes, 100% inhibition = E-4031 10.3 µmol/L. Type of test: cell-based. The method, then:
(§1) For the purpose of evaluating risk of an electrocardiogram QT interval prolongation of the compound of the present invention, effects of the compound are studied by evaluating the activity of potassium channel using CHO cells expressing human ether-a-go-go related gene (hERG) channel.
(§2) Evaluation is performed using a FluxORII Green Potassium Ion Channel Assay kit (Invitrogen: Molecular Probes).
Cells (8000 cells/well/40 µL) are seeded in a 384 assay plate, and are incubated overnight (37°C, 5% CO2). […]
(§3) A cell plate is placed on a cell-based kinetic assay system FLIPR (Molecular Devices, LLC.), and the compound is added to the cells so as to have a desired concentration and reacted for 10 minutes. When a mixed solution of potassium and thallium as a stimulator is added thereto, the potassium channel is opened, and thallium that flowed into the cells binds to the fluorescent indicator, so that the intracellular fluorescence signal increases, and the potassium channel current is detected as a fluorescence signal. […] Then, the inhibition rate is calculated from the signal intensity at each concentration. IC50 is calculated from the inhibition rate at each concentration.

The target of test [6] is T3, human ether-a-go-go related gene (hERG) channel. The experiment in a line: Test Example 3-2: hERG test (FluxORII thallium flux, FLIPR, 4000 cells/well). Type of test: cell-based. To be noted: CHO cells expressing hERG channel, compound reacted for 10 minutes, 100% inhibition = E-4031 10.3 µmol/L. The protocol: as §1, §2
Cells (4000 cells/well/40 µL) are seeded in a 384 assay plate, and are incubated overnight (37°C, 5% CO2). After replacing the medium with a Wash buffer (lxHBSS, 20 mM HEPES) with a microplate washer, a fluorescent indicator is added to the medium and allowed to incubate (37°C, 5% CO2) for 1 hour for incorporation of the fluorescent indicator into cells.
as §3

The mark [7] stands for this setting: [3H]-Ketanserin, non-specific binding with 500 µmol/L Serotonin HCl, room temperature (25°C), 1.5 hours, read-out: h 5-HT2A Ki.
The mark [8] stands for this setting: [3H]-Mesulergine, non-specific binding with 500 µmol/L Serotonin HCl, 37°C, 2 hours.
[9] abbreviates: [3H]-Ketanserin, non-specific binding with 500 µmol/L Ketanserin, room temperature (25°C), 1.5 hours, read-out: h 5-HT2A Ki.
Setting [10] is: human serotonin 5-HT2C receptor binding activity.

T3 sequence (Q12809 whole entry): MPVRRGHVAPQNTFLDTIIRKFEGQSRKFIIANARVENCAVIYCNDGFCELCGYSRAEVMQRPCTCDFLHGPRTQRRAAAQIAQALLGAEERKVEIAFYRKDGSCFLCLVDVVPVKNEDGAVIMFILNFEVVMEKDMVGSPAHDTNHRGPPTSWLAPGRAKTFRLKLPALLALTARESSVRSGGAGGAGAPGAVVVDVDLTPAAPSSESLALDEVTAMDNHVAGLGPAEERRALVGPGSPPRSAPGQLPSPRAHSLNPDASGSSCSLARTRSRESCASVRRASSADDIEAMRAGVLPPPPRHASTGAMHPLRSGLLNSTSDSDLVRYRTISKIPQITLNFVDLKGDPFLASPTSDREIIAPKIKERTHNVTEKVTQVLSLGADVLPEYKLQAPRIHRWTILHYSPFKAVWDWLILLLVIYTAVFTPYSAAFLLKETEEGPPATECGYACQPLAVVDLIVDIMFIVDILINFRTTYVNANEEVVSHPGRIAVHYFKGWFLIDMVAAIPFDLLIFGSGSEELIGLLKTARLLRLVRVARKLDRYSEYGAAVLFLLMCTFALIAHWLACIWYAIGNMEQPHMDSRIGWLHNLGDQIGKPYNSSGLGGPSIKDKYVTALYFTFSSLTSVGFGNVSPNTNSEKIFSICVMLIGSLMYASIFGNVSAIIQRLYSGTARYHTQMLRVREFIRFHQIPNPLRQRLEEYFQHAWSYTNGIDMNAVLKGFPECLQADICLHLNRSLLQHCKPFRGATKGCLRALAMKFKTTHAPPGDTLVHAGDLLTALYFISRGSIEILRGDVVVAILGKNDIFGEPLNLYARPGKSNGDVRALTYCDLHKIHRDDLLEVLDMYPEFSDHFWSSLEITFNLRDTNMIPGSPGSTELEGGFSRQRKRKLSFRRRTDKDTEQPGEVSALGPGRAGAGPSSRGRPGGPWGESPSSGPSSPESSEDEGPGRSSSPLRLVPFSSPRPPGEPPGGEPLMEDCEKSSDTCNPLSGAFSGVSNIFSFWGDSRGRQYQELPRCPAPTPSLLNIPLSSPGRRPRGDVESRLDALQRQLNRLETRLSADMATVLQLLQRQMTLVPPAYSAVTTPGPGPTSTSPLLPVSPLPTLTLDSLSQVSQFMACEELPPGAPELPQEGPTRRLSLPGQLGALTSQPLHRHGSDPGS
T1 sequence (P28223 whole entry): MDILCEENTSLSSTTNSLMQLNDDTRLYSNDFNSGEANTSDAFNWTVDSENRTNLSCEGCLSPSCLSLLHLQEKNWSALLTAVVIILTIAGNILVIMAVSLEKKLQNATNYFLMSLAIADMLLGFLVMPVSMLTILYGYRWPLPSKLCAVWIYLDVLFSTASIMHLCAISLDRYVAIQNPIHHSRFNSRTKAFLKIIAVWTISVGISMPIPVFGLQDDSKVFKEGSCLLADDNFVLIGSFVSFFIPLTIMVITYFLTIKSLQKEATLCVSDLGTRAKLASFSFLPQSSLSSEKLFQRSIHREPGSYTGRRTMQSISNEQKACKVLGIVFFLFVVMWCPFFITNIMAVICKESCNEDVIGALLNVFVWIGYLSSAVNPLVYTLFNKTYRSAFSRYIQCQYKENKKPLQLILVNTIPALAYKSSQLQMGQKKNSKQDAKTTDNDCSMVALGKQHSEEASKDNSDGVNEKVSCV

As to `Cn1ncc(Br)c1-c1cc(Nc2ccc(C(F)(F)F)cc2)ccc1OCCO` [Compound I-001], the pKi in test [1] (setting [7]) is 9.35; in test [2] (setting [8]), 8.84.

Consider `Cn1ncc(Br)c1-c1cc(Nc2ccc(F)cc2)ccc1OCCO` [Compound I-003], for which the pKi in test [1] (setting [7]) was 9.22; in test [2] (setting [8]), 7.94.

As for `Cn1ncc(Br)c1-c1cc(Nc2ccc(C(F)(F)F)cn2)ccc1OCCO` [Compound I-004], the negative-log Ki (pKi) in test [1] (setting [7]) was 9.38; in test [2] (setting [8]) it was 9.41.

Consider `Cn1ncc(Br)c1-c1cc(Nc2ncc(C(F)(F)F)s2)ccc1OCCO` [Compound I-005], for which the negative-log Ki (pKi) is 9.52 in test [1] (setting [7]) and 8.97 in test [2] (setting [8]).

Regarding `Cn1ncc(Br)c1-c1cc(Nc2ccc(C(F)(F)F)nn2)ccc1OCCO` [Compound I-007], the pKi in test [1] (setting [7]) was 9.26; in test [2] (setting [8]) it was 7.83.

`Cn1nccc1-c1cc(Nc2ncc(C(F)(F)F)cc2F)ccc1OCCO` [Compound I-009]: the values for the negative logarithm of the Ki (pKi) in test [1] (setting [7]) and in test [2] (setting [8]) were 9.47 and 8.06, respectively.

Regarding `Cn1ncc(Br)c1-c1cc(Nc2ncc(C(F)(F)F)cc2F)ncc1OCCO` [Compound I-062], the negative logarithm of the Ki (pKi) is 9.54 in test [3] and 9.44 in test [4]. In addition, in test [5], the negative-log IC50 (pIC50) is below 4.28.

`Cc1cnn(C)c1-c1cc(Nc2ncc(C(F)(F)F)cc2F)ncc1OCCO` [Compound I-063]: the negative logarithm of the Ki (pKi) is 9.47 in test [3] and 8.68 in test [4]. Further, in test [5], the pIC50 is below 4.28.

Take `Cn1ncc(Br)c1-c1cc(Nc2ncc(C(F)(F)F)cc2F)ncc1OC(F)(F)CO` [Compound I-228]: the pKi in test [3] (setting [9]) was 9.50; in test [2] (setting [10]) it was 9.13. This compound also had a pIC50 in test [6] of 4.30.

`Cc1nc(C)c(-c2nc(Nc3ccc(C(F)(F)F)cc3)c(F)cc2OCCO)c(C)n1` [Compound I-267]: the pKi is 9.33 in test [3] (setting [9]) and 9.10 in test [2] (setting [10]). The same compound showed a pIC50 in test [6] below 4.28.

With `Cc1nc(C)c(-c2cc(Nc3ccc(-c4ccc(F)cc4)cn3)cnc2O[C@H](C)CO)c(C)n1` [Compound I-271], the pKi in test [3] (setting [9]) was 9.40; in test [2] (setting [10]) it was 8.41. In test [6], the pIC50 was below 4.28.

For the compound `CNC(=O)c1ccc(F)c(-c2cc(Nc3ncc(C(F)(F)F)cc3F)ncc2OCCO)c1F` [Compound I-359], the negative logarithm of the Ki (pKi) in test [3] (setting [9]) was 9.02; in test [2] (setting [10]) it was 8.34. This compound also gave a negative-log IC50 (pIC50) in test [6] below 4.28.

As for `Cn1ncc(Br)c1-c1cc(Nc2ccc(C(F)(F)F)nc2)ccc1OCCO` [I-002], the figures for the negative logarithm of the Ki (pKi) in test [1] and in test [2] (setting [8]) were 9.43 and 7.72, respectively.
